# Reference: patent publication US4670540A, “Novel peptide” (Ajinomoto Co., Inc., priority 1984, dated 1987)
# Assays:
# chick rectum = assay: Spasmolytic activity in chick rectum; assay type: cell-based; conditions: rectum contracted with carbachol (2×10^-7 M); specific activity, α-hANP[1-28] = 100; mean ± standard error, number of experiments in parentheses
# Method: (2) Spasmolytic activity in chick rectum. Male, 2- to 3-week-old chicks weighing 155-175 g were used. After the chicks were anesthetized with pentobarbital (6 mg/kg, ip), their rectums were excised. Krebs solution was used. The rectums were suspended in 20 ml organ-bath aerated with 5% carbon dioxide and 95% oxygen and kept at 37° ±0.5° C. Contractile tension of the rectum was determined isotonically. The isotonic recording system used was the same as that used in testing the rat aortic preparations. The rectal preparations were stabilized by keeping them under 0.5 g of tension conditions for 1 hour. The rectal preparations contracted with carbachol (2×10^-7 M),were exposed to ANP to examine its relaxing effect. As with the rat aortic preparations, ED50 for the standard α-haNP(1-28) and for the ANP fragment were determined, and the specific activity were calculated.
# rat aortic strips = assay: Spasmolytic activity in rat aortic strips; assay type: cell-based; conditions: aortic strips contracted with norepinephrine (5×10^-8 M); specific activity, α-hANP[1-28] = 100; mean ± standard error, number of experiments in parentheses
# Method: (1) Spasmolytic activity in rat aortic strips. Male Sprague-Dawley rats weighing 250-280 g were used. After the rats were decapitated, their thoracic aorta were obtained and aortic helical strips were prepared. Krebs solution was used in this assay system. The aortic strips were suspended in a 20 ml organ-bath which was aerated with 5% carbon dioxide and 95% oxygen and kept at 37° ±0.5° C. The aortic tension was recorded isotonically. The isotonic recording system, consisted of a transducer and amplifier (ME commercial ME4012) and a recorder (Sanei 8K21). A resting tension of 0.5 g was loaded on the aortic strips. The prepared strips were left under the described conditions for 1 hour to obtain the stable tension. The aortic preparation contracted with norepinephrine (5×10^-8 M) was exposed to ANP to examine its relaxant activity. The dose response curve was obtained for the α-hANP(1-28) and the ANP fragment in the same preparation. The 50% effective dose (ED50) for each preparation was obtained and the ratio was used as the specific activity.
Compound,Spasmolytic Activity in Chick Rectum (ratio of ED50 to the standard hANP (1-28)) (chick rectum),Spasmolytic Activity in Rat Aorta (ratio of ED50 to the standard hANP (1-28)) (rat aortic strips)
"CC[C@H](C)[C@@H]1NC(=O)[C@H](CCCNC(=N)N)NC(=O)[C@H](CC(=O)O)NC(=O)[C@H](CCSC)NC(=O)[C@H](CCCNC(=N)N)NC(=O)CNC(=O)CNC(=O)[C@H](Cc2ccccc2)NC(=O)[C@@H](NC(=O)[C@H](CO)NC(=O)[C@H](CO)NC(=O)[C@H](CCCNC(=N)N)NC(=O)[C@H](CCCNC(=N)N)NC(=O)[C@H](CC(C)C)NC(=O)[C@@H](N)CO)CSSC[C@@H](C(=O)N[C@@H](CC(N)=O)C(=O)N[C@@H](CO)C(=O)N[C@@H](Cc2ccccc2)C(=O)N[C@@H](CCCNC(=N)N)C(=O)N[C@@H](Cc2ccc(O)cc2)C(=O)O)NC(=O)CNC(=O)[C@H](CC(C)C)NC(=O)CNC(=O)[C@H](CO)NC(=O)[C@H](CCC(N)=O)NC(=O)[C@H](C)NC(=O)CNC1=O [α-hANP[1-28], α-human atrial natriuretic peptide]",100,100
(Nle^12)α-hANP(1-28) [[Nle^12]-α-hANP[1-28]],70.3 ± 10.9,80.5 ± 12.2
